In PubChem BioAssay (NCI):
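Results reflect a 48-hour exposure of cells in 96-well plates to compound at five concentrations. GI50 = concentration required for 50% inhibition of growth. TGI denotes the concentration required for complete inhibition of growth.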

Legend:
Assay in all cases: NCI anticancer screen, dose series, 48 h
MDA-MB-231 breast = system: MDA-MB-231 breast
ACHN renal = system: ACHN renal
BT-549 breast = system: BT-549 breast
MDA-MB-435 = system: MDA-MB-435
LOX IMVI melanoma = system: LOX IMVI melanoma
M14 melanoma = system: M14 melanoma
NCI/ADR-RES ovarian = system: NCI/ADR-RES ovarian
OVCAR-5 ovarian = system: OVCAR-5 ovarian
HCT-116 colon = system: HCT-116 colon
NCI-H23 lung = system: NCI-H23 lung
UACC-62 melanoma = system: UACC-62 melanoma
TK-10 renal = system: TK-10 renal
DU-145 prostate = system: DU-145 prostate
HOP-62 NSCLC = system: HOP-62 NSCLC
SK-OV-3 ovarian = system: SK-OV-3 ovarian
HL-60(TB) leukemia = system: HL-60(TB) leukemia
COLO 205 colon = system: COLO 205 colon
MCF7 breast = system: MCF7 breast
HOP-92 NSCLC = system: HOP-92 NSCLC
CCRF-CEM leukemia = system: CCRF-CEM leukemia
SR leukemia = system: SR leukemia
NCI-H460 lung = system: NCI-H460 lung
SK-MEL-28 melanoma = system: SK-MEL-28 melanoma
A549 NSCLC = system: A549 NSCLC
NCI-H226 lung = system: NCI-H226 lung
OVCAR-8 ovarian = system: OVCAR-8 ovarian
SNB-19 CNS = system: SNB-19 CNS
SNB-75 CNS = system: SNB-75 CNS
A498 renal = system: A498 renal
PC-3 prostate = system: PC-3 prostate
SN12C renal = system: SN12C renal
IGROV1 ovarian = system: IGROV1 ovarian
EKVX NSCLC = system: EKVX NSCLC
SK-MEL-5 melanoma = system: SK-MEL-5 melanoma
MALME-3M melanoma = system: MALME-3M melanoma
MDA-MB-468 breast = system: MDA-MB-468 breast
RXF 393 renal = system: RXF 393 renal
MOLT-4 leukemia = system: MOLT-4 leukemia
HCT-15 colon = system: HCT-15 colon
KM12 colon = system: KM12 colon
OVCAR-3 ovarian = system: OVCAR-3 ovarian
NCI-H522 lung = system: NCI-H522 lung
OVCAR-4 ovarian = system: OVCAR-4 ovarian
UO-31 renal = system: UO-31 renal
HCC-2998 colon = system: HCC-2998 colon
U251 CNS = system: U251 CNS
SW-620 colon = system: SW-620 colon
786-0 renal = system: 786-0 renal
T-47D breast = system: T-47D breast
CAKI-1 renal = system: CAKI-1 renal
HS 578T breast = system: HS 578T breast
SF-539 CNS = system: SF-539 CNS
SF-268 CNS = system: SF-268 CNS
HT29 colon = system: HT29 colon
UACC-257 melanoma = system: UACC-257 melanoma
SF-295 CNS = system: SF-295 CNS
K-562 leukemia = system: K-562 leukemia
RPMI-8226 leukemia = system: RPMI-8226 leukemia
SK-MEL-2 melanoma = system: SK-MEL-2 melanoma

## CCCn1c(=O)c2[nH]c(-c3ccc(OCc4nc5ccc(C)cc5[nH]4)cc3)nc2n(CCC)c1=O
MDA-MB-231 breast
  GI50: 3.48 µM
  TGI: 14.5 µM
ACHN renal
  GI50: 3.29 µM
  TGI: 13.4 µM
BT-549 breast
  GI50: 14 µM
  TGI: 46.7 µM
MDA-MB-435
  GI50: 31 µM
  TGI: > 100 µM
LOX IMVI melanoma
  GI50: 4.72 µM
  TGI: 17.3 µM
M14 melanoma
  GI50: 21.3 µM
  TGI: > 100 µM
NCI/ADR-RES ovarian
  GI50: 11 µM
  TGI: 64.5 µM
OVCAR-5 ovarian
  GI50: 18.5 µM
  TGI: 76.8 µM
HCT-116 colon
  GI50: 11.3 µM
  TGI: 27.8 µM
NCI-H23 lung
  GI50: 12 µM
  TGI: 24.4 µM
UACC-62 melanoma
  GI50: 10 µM
  TGI: 25.6 µM
TK-10 renal
  GI50: 10.7 µM
  TGI: 23.1 µM
DU-145 prostate
  GI50: 66.4 µM
  TGI: > 100 µM
HOP-62 NSCLC
  GI50: 4.12 µM
  TGI: 16.9 µM
SK-OV-3 ovarian
  GI50: 12.1 µM
  TGI: 27 µM
HL-60(TB) leukemia
  GI50: 46.2 µM
  TGI: > 100 µM
COLO 205 colon
  GI50: 84.7 µM
  TGI: > 100 µM
MCF7 breast
  GI50: 7.35 µM
  TGI: 36.6 µM
HOP-92 NSCLC
  GI50: 2.29 µM
  TGI: 9.1 µM
CCRF-CEM leukemia
  GI50: 32.8 µM
  TGI: > 100 µM
SR leukemia
  GI50: > 100 µM
  TGI: > 100 µM
NCI-H460 lung
  GI50: 6.04 µM
  TGI: 23.1 µM
SK-MEL-28 melanoma
  GI50: 15.9 µM
  TGI: > 100 µM
A549 NSCLC
  GI50: 13.5 µM
  TGI: > 100 µM
NCI-H226 lung
  GI50: 2.91 µM
  TGI: 13.2 µM
OVCAR-8 ovarian
  GI50: 5.3 µM
  TGI: 24.8 µM
SNB-19 CNS
  GI50: 6 µM
  TGI: 28.6 µM
SNB-75 CNS
  GI50: 1.54 µM
  TGI: 4.62 µM
A498 renal
  GI50: 2.43 µM
  TGI: 10.6 µM
PC-3 prostate
  GI50: 9.66 µM
  TGI: > 100 µM
SN12C renal
  GI50: 3.78 µM
  TGI: 18.1 µM
IGROV1 ovarian
  GI50: 10.1 µM
  TGI: 38.7 µM
EKVX NSCLC
  GI50: 20.7 µM
  TGI: > 100 µM
SK-MEL-5 melanoma
  GI50: 13.7 µM
  TGI: 31.5 µM
MALME-3M melanoma
  GI50: 7.28 µM
  TGI: 20.5 µM
MDA-MB-468 breast
  GI50: 8.62 µM
  TGI: 27.6 µM
RXF 393 renal
  GI50: 1.62 µM
  TGI: 5.12 µM
MOLT-4 leukemia
  GI50: 12.2 µM
  TGI: > 100 µM
HCT-15 colon
  GI50: 14.7 µM
  TGI: > 100 µM
KM12 colon
  GI50: > 100 µM
  TGI: > 100 µM
OVCAR-3 ovarian
  GI50: 8.62 µM
  TGI: 85.9 µM
NCI-H522 lung
  GI50: 17.2 µM
  TGI: 42.3 µM
OVCAR-4 ovarian
  GI50: 2.73 µM
  TGI: > 100 µM
UO-31 renal
  GI50: 1.98 µM
  TGI: 7.27 µM
HCC-2998 colon
  GI50: 29 µM
  TGI: > 100 µM
U251 CNS
  GI50: 4.06 µM
  TGI: 17 µM
SW-620 colon
  GI50: 32.5 µM
  TGI: > 100 µM
786-0 renal
  GI50: 3.06 µM
  TGI: 12.1 µM
T-47D breast
  GI50: 16.9 µM
  TGI: 47.2 µM
CAKI-1 renal
  GI50: 4.55 µM
  TGI: 25.1 µM
HS 578T breast
  GI50: 2.36 µM
  TGI: 11.1 µM
SF-539 CNS
  GI50: 2.61 µM
  TGI: 7.98 µM
SF-268 CNS
  GI50: 12.6 µM
  TGI: > 100 µM
HT29 colon
  GI50: 29.6 µM
  TGI: > 100 µM
UACC-257 melanoma
  GI50: 40.9 µM
  TGI: > 100 µM
SF-295 CNS
  GI50: 2.65 µM
  TGI: 13.1 µM
K-562 leukemia
  GI50: 22.3 µM
  TGI: > 100 µM
RPMI-8226 leukemia
  GI50: 9.71 µM
  TGI: > 100 µM
SK-MEL-2 melanoma
  GI50: 16.8 µM
  TGI: 33.2 µM
